Consider 1 compound from BindingDB's records for doi:10.1016/s0960-894x(01)00264-5 (Shionogi, 2001).

The target of this test is Chymotrypsinogen A (Bos taurus) (UniProt P00766). Nature of the test: Compound was evaluated for its inhibitory activity against bovine pancreatic alpha-chymotrypsin.

In turn, `Cc1ccc(N2C(=O)N(c3ccc(C)cc3)C2=O)cc1` [1,3-Di-p-tolyl-[1,3]diazetidine-2,4-dione] returned an IC50 of 2.4 nM.
